Results: ChEMBL document CHEMBL1147116 (Antimicrob Agents Chemother, 2007)
Converted amounts (≈) assume the structure as drawn.

Experiments:
[1] = Peak free concentration at 400 mg/24 hrs regimen in vitro PK model; type: ADME
Streptococcus pneumoniae [2] = test: Bactericidal activity against Streptococcus pneumoniae ATCC 49619 at fAUC/MIC of 60 after 48 hrs in pharmacodynamic model; conditions: ATCC 49619, 48 h
Streptococcus pneumoniae [3] = test: Bactericidal activity against Streptococcus pneumoniae ATCC 49619 at fAUC/MIC of 67 after 24 to 96 hrs in pharmacodynamic model
Streptococcus pneumoniae [4] = test: fAUC/MIC ratio of Streptococcus pneumoniae BSP-2443 at 235 mg
Streptococcus pneumoniae [5] = test: Bactericidal activity against Streptococcus pneumoniae BSP-2443 with parC S52G, N91D mutation at fAUC/MIC of 51 after 72 hrs in pharmacodynamic model; conditions: BSP2443, 72 h
Streptococcus pneumoniae [6] = test: Bactericidal activity against Streptococcus pneumoniae ATCC 49619 with S79Y Parc mutation and S81F gyrA mutation at fAUC/MIC of 60 after 96 hrs in pharmacodynamic model; conditions: ATCC 49619, 96 h
[7] = Half life at 400 mg/24 hrs regimen in vitro PK model; type: ADME
[8] = Half life at 175 mg/24 hrs regimen in vitro PK model; type: ADME
[9] = Half life at 200 mg/24 hrs regimen in vitro PK model; type: ADME
Streptococcus pneumoniae [10] = test: Susceptibility of Streptococcus pneumoniae ATCC 49619 by microdilution method; type: functional
[11] = Peak free concentration at 150 mg/24 hrs regimen in vitro PK model; type: ADME
Streptococcus pneumoniae [12] = test: Bactericidal activity against Streptococcus pneumoniae ATCC 49619 with Parc S79Y mutation at fAUC/MIC of 35 after 24 hrs in pharmacodynamic model; conditions: ATCC 49619, 24 h
[13] = Peak free concentration at 100 mg/24 hrs regimen in vitro PK model; type: ADME
Streptococcus pneumoniae [14] = test: Bactericidal activity against Streptococcus pneumoniae BSP-2443 with parC S52G, N91D mutation and gyrA S114G mutation at fAUC/MIC of 51 after 96 hrs in pharmacodynamic model; conditions: BSP2443, 96 h
[15] = Half life at 150 mg/24 hrs regimen in vitro PK model; type: ADME
Streptococcus pneumoniae [16] = test: fAUC/MIC ratio of Streptococcus pneumoniae ATCC 49619 at 175 mg
Streptococcus pneumoniae [17] = test: fAUC/MIC ratio of Streptococcus pneumoniae ATCC 49619 at 100 mg
Streptococcus pneumoniae [18] = test: Susceptibility of Streptococcus pneumoniae BSP-2443 by microdilution method; type: functional; conditions: BSP2443
Streptococcus pneumoniae [19] = test: Bactericidal activity against Streptococcus pneumoniae BSP-2443 at fAUC/MIC of 51 after 24 to 48 hrs in pharmacodynamic model; conditions: BSP2443
Streptococcus pneumoniae [20] = test: Bactericidal activity against Streptococcus pneumoniae ATCC 49619 with parC S79Y mutation at fAUC/MIC of 60 after 72 hrs in pharmacodynamic model; conditions: ATCC 49619, 72 h
Streptococcus pneumoniae [21] = test: Bactericidal activity against Streptococcus pneumoniae ATCC 49619 with Parc S79Y mutation and gyrA S81F mutation at fAUC/MIC of 35 after 96 hrs in pharmacodynamic model; conditions: ATCC 49619, 96 h
Streptococcus pneumoniae [22] = test: Bactericidal activity against Streptococcus pneumoniae ATCC 49619 at fAUC/MIC of 66 after 24 to 96 hrs in pharmacodynamic model
Streptococcus pneumoniae [23] = test: Bactericidal activity against Streptococcus pneumoniae ATCC 49619 with Parc S79Y mutation and gyrA S81F mutation at fAUC/MIC of 35 after 48 hrs in pharmacodynamic model; conditions: ATCC 49619, 48 h
[24] = Peak free concentration at 200 mg/24 hrs regimen in vitro PK model; type: ADME
Streptococcus pneumoniae [25] = test: Bactericidal activity against Streptococcus pneumoniae BSP-2443 at fAUC/MIC of 62 after 24 to 96 hrs in pharmacodynamic model; conditions: BSP2443
Streptococcus pneumoniae [26] = test: fAUC/MIC ratio of Streptococcus pneumoniae BSP-2443 at 198 mg
Streptococcus pneumoniae [27] = test: fAUC/MIC ratio of Streptococcus pneumoniae ATCC 49619 at 150 mg
Streptococcus pneumoniae [28] = test: fAUC/MIC ratio of Streptococcus pneumoniae ATCC 49619 at 200 mg
[29] = Peak free concentration at 175 mg/24 hrs regimen in vitro PK model; type: ADME
[30] = Half life at 100 mg/24 hrs regimen in vitro PK model; type: ADME
Streptococcus pneumoniae [31] = test: fAUC/MIC ratio of Streptococcus pneumoniae ATCC 49619 at 400 mg
Streptococcus pneumoniae [32] = test: Bactericidal activity against Streptococcus pneumoniae ATCC 49619 with Parc S79Y mutation and gyrA S81F mutation at fAUC/MIC of 35 after 72 hrs in pharmacodynamic model; conditions: ATCC 49619, 72 h
Streptococcus pneumoniae [33] = test: Bactericidal activity against Streptococcus pneumoniae ATCC 49619 at fAUC/MIC of 60 after 24 hrs in pharmacodynamic model; conditions: ATCC 49619, 24 h
Streptococcus pneumoniae [34] = test: Bactericidal activity against Streptococcus pneumoniae ATCC 49619 at fAUC/MIC of 144 after 24 to 96 hrs in pharmacodynamic model

COc1c(N2CCNC(C)C2)c(F)cc2c(=O)c(C(=O)O)cn(C3CC3)c12 (centres undefined) [GATIFLOXACIN]
Activity [1]: 2.79 µg/mL | MIC (Streptococcus pneumoniae [2]): 0.25 µg/mL | MIC (Streptococcus pneumoniae [3]): 0.19 µg/mL | fAUC/MIC (Streptococcus pneumoniae [4]): 62 | MIC (Streptococcus pneumoniae [5]): 0.38 µg/mL | MIC (Streptococcus pneumoniae [6]): 4 µg/mL | half-life [7]: 8.01 h | half-life [8]: 7.57 h | half-life [9]: 8.65 h | MIC (Streptococcus pneumoniae [10]): 0.025 µg/mL (≈ 0.0666 µM) | Activity [11]: 1.13 µg/mL | MIC (Streptococcus pneumoniae [12]): 0.38 µg/mL | Activity [13]: 0.71 µg/mL | MIC (Streptococcus pneumoniae [14]): 3 µg/mL | half-life [15]: 8.16 h | fAUC/MIC (Streptococcus pneumoniae [16]): 66 | fAUC/MIC (Streptococcus pneumoniae [17]): 35 | MIC (Streptococcus pneumoniae [18]): 0.025 µg/mL (≈ 0.0666 µM) | MIC (Streptococcus pneumoniae [19]): 0.25 µg/mL | MIC (Streptococcus pneumoniae [20]): 0.75 µg/mL | MIC (Streptococcus pneumoniae [21]): 8 µg/mL | MIC (Streptococcus pneumoniae [22]): 0.19 µg/mL | MIC (Streptococcus pneumoniae [23]): 6 µg/mL | Activity [24]: 1.38 µg/mL | MIC (Streptococcus pneumoniae [25]): 0.25 µg/mL | fAUC/MIC (Streptococcus pneumoniae [26]): 51 | fAUC/MIC (Streptococcus pneumoniae [27]): 60 | fAUC/MIC (Streptococcus pneumoniae [28]): 67 | Activity [29]: 1.22 µg/mL | half-life [30]: 7.65 h | fAUC/MIC (Streptococcus pneumoniae [31]): 144 | MIC (Streptococcus pneumoniae [32]): 6 µg/mL | MIC (Streptococcus pneumoniae [33]): 0.25 µg/mL | MIC (Streptococcus pneumoniae [34]): 0.19 µg/mL
